Measured values as given in patent US20050182065A1, “Method of stimulating hair growth” (priority 2004, published 2005).

How the values were obtained:
[1] = tested on: C3H/HeN mice; assay: Telogen Conversion Assay; format: in vivo; conditions: for Results: number of days following initiation of treatment when hair growth appeared in 50% of the mice: topical once daily for 5 days
Description: The Telogen Conversion Assay measures the potential of a compound (hereinafter referred to as the “test compound”) to convert mice in the resting stage of the hair growth cycle (“telogen”) to the active stage of the hair growth cycle (“anagen”). This assay takes advantage of the fact that the fur (i.e. hair) of 40-day-old C3H/HeN mice is in the telogen phase. This phase usually continues until about 75 days of age, at which point, anagen naturally occurs in these animals. In this assay, selected areas of 40-day-old mice (approximate) are shaved, contacted with a test agent, or a control, and the difference in the rate of hair growth is measured (i.e. induction of the anagen phase). The first sign of anagen is the darkening of skin color as melanocytes in the follicles start to synthesize melanin, in preparation for the production of pigmented hairs.
Female C3H/HeN mice, 7 weeks old (Charles River Laboratories, Raleigh, N.C.) were used for the study. Fur was clipped from the dorsal region of the mice prior to initiation of the study. Only mice with pink skin, a visual indication of the telogen phase, were selected for inclusion in the study.
Test compounds (from Table A) were dissolved in a vehicle consisting of propylene glycol (30%) and ethanol (70%). A test compound dissolved in vehicle, or a vehicle control (30/70 propylene glycol/ethanol, unless otherwise specified) was applied topically to the clipped dorsal region of the mice in each test group (7-10 mice) in a volume of 20 μl/cm^2. Treatments were applied once daily for 5 days.
The treatment area was observed and graded for signs of hair growth. The hair growth response was quantified by recording, for each animal, the day on which signs of hair growth first appeared over the treated area. The first sign of anagen was the darkening of skin color as melanocytes in the follicles started to synthesize melanin. The response time was measured as the number of days between initiation of treatment and when hair growth was present in 50% of the mice in a given group.
The results are reported as the number of days following initiation of treatment when hair growth appeared in 50% of the mice in a given group.

[2] = tested on: C3H/HeN mice; assay: Telogen Conversion Assay; format: in vivo; conditions: Experiment 8; for Results: number of days following initiation of treatment when hair growth appeared in 50% of the mice: topical once daily for 5 days, solvent polyethylene glycol 30 v/v %, ethanol 30 v/v %, transcutanol 40 v/v %, vehicle 28

`Cn1nc(O[C@@H]2c3cc(S(=O)(=O)c4ccccc4O)ccc3OC(C)(C)[C@@]2(C)O)ccc1=O` [Compound #7] was tested, and the “Results: number of days following initiation of treatment when hair growth appeared in 50% of the mice” value (from here on “Results: number … in 50% of the mice”) ([1]; Experiment 9, 0.03 w/v %, propylene glycol 30%/ethanol 70%, terminated early) was >33 days, the “Results: number … in 50% of the mice” value ([1]; Experiment 9, 0.3 w/v %, propylene glycol 30%/ethanol 70%, terminated early) was >33 days and the “Results: number … in 50% of the mice” value ([1]; Experiment 9, 1.0 w/v %, propylene glycol 30%/ethanol 70%, terminated early) was >33 days. For the same molecule, the “Results: number … in 50% of the mice” value ([1]; Experiment 10, 0.1 w/v %, propylene glycol 30%/ethanol 70%, terminated early) was >34 days, the “Results: number … in 50% of the mice” value ([1]; Experiment 10, 0.1 w/v %, solvent polyethylene glycol 30 v/v %, ethanol 30 v/v %, transcutanol 40 v/v %, terminated early) was >34 days and the “Results: number … in 50% of the mice” value ([1]; Experiment 10, 0.3 w/v %, propylene glycol 30%/ethanol 70%, terminated early) was >34 days. For the same molecule, the “Results: number … in 50% of the mice” value ([1]; Experiment 10, 0.3 w/v %, solvent polyethylene glycol 30 v/v %, ethanol 30 v/v %, transcutanol 40 v/v %, terminated early) was >34 days, the “Results: number … in 50% of the mice” value ([1]; Experiment 15, 0.03 w/v %, propylene glycol 30%/ethanol 70%, vehicle >30) was >30 days and the “Results: number … in 50% of the mice” value ([1]; Experiment 15, 0.3 w/v %, propylene glycol 30%/ethanol 70%, vehicle >30) was >30 days. The “Results: number … in 50% of the mice” value ([1]; Experiment 15, 1.0 w/v %, propylene glycol 30%/ethanol 70%, vehicle >30) was >30 days, the “Induction of anagen (conclusion in words)” value ([1]; Experiment 15, terminated early) was “showed no effect at the time of termination” and the “Results: number … in 50% of the mice” value ([2]; 0.3 w/v %) was 21 days. For the same molecule, the “Results: number … in 50% of the mice” value ([2]; 1.0 w/v %) was 21 days and the “Induction of anagen (conclusion in words)” value ([2]; transcutol, ethanol, polypropylene glycol vehicle) was “did exhibit activity”.
